Laboratory results from patent publication US20140256551A1, “HERBICIDAL COMPOSITIONS COMPRISING ISOXABEN AND FLUFENACET” (Dow AgroSciences LLC, priority 2013, published 2014).

Legend:
Type in all cases: in vivo
Conditions in all cases: 200 L/ha water, isoxaben 40, flufenacet 200, diflufenican 100 g ai/ha, observed mean
[1] = tested on: STEME (Stellaria media (L.) Vill., common chickweed); test: Trial 1: small plot field experiment in winter wheat, foliar applied, visual % control of STEME
Source text: (§1) Results in Tables 1 and 2 are for foliar applied compositions in small plot research experiments to evaluate the efficacy of the compositions in winter wheat. Application water volume was 200 liters per hectare (L/ha). Crop stage at time of application was 12-13. The values reported are means. […] Colby's equation was used to determine the herbicidal effects expected from the mixtures (Colby, S. R. Calculation of the synergistic and antagonistic response of herbicide combinations. Weeds 1967, 15, 20-22.). More specifically, the following equation was used to calculate the expected activity of mixtures containing two active ingredients, A and B:
(§2) A=observed efficacy of active ingredient A at the same concentration as used in the mixture;
(§3) B=observed efficacy of active ingredient B (or combination B) at the same concentration as used in the mixture.

[2] = tested on: BRSNW (Brassica napus, winter oilseed rape); test: Trial 1: small plot field experiment in winter wheat, foliar applied, visual % control of BRSNW
Source text: as §1, §2, §3

[3] = tested on: GERDI (Geranium dissectum, cutleaf geranium); test: Trial 1: small plot field experiment in winter wheat, foliar applied, visual % control of GERDI
Source text: as §1, §2, §3

[4] = tested on: BRSNW (Brassica napus, winter oilseed rape); test: Trial 2: small plot field experiment in winter wheat, foliar applied, visual % control of BRSNW
Source text: as §1, §2, §3

Row | Compound | VISUAL % CONTROL OF STEME 28 DAT, Ob [1] | VISUAL % CONTROL OF BRSNW 28 DAT, Ob [2] | VISUAL % CONTROL OF GERDI 28 DAT, Ob [3] | VISUAL % CONTROL OF BRSNW 13 DAT, Ob [4] | VISUAL % CONTROL OF BRSNW 25 DAT, Ob [4]
1 | CC(C)N(C(=O)COc1nnc(C(F)(F)F)s1)c1ccc(F)cc1 [flufenacet, N-(4-fluorophenyl)-N-(1-methylethyl)-2-[[5-(trifluoromethyl)-1,3,4-thiadiazol-2-yl]oxy]acetamide] | 0 e % | 0 d % | 0 d % | 43 cd % | 55 b %
2 | CCC(C)(CC)c1cc(NC(=O)c2c(OC)cccc2OC)on1 [isoxaben, N-[3-(1-ethyl-1-methylpropyl)isoxazol-5-yl]-2,6-dimethoxybenzamide] | 0 e % | 0 d % | 0 d % | 22 de % | 23 cd %
